We go through four molecules from patent publication US6322962A, “Sterol-regulated Site-1 protease and assays of modulators thereof” (Board of Regents, The University of Texas System, priority 1999, dated 2001).

Entries after “also recorded” stand apart in the source; their conditions may differ. Peptide text beside a SMILES is read from it. * marks the point of attachment. AMC = Cc1cc(=O)oc2cc(N*)ccc12

One assay relates to SKI-1. Conditions: Seidah et al., 1999, preliminary data; cited from earlier work.
For a further assay, the target named is T1, purified S1P(983)-C (Cricetulus griseus, UniProt Q9Z2A8, T875N).
T1 construct: Truncated S1P (amino acids 1-983); GGR linker (NotI site); made in house; host or cells: SRD-12B cells (mutant CHO cells lacking S1P) stably transfected with pCMV-S1P(983)-Myc-His (TR-3117, 'S1P(983) cells'); secreted into the medium and purified on Ni-NTA
T1 sequence (Q9Z2A8 187-983 T875N): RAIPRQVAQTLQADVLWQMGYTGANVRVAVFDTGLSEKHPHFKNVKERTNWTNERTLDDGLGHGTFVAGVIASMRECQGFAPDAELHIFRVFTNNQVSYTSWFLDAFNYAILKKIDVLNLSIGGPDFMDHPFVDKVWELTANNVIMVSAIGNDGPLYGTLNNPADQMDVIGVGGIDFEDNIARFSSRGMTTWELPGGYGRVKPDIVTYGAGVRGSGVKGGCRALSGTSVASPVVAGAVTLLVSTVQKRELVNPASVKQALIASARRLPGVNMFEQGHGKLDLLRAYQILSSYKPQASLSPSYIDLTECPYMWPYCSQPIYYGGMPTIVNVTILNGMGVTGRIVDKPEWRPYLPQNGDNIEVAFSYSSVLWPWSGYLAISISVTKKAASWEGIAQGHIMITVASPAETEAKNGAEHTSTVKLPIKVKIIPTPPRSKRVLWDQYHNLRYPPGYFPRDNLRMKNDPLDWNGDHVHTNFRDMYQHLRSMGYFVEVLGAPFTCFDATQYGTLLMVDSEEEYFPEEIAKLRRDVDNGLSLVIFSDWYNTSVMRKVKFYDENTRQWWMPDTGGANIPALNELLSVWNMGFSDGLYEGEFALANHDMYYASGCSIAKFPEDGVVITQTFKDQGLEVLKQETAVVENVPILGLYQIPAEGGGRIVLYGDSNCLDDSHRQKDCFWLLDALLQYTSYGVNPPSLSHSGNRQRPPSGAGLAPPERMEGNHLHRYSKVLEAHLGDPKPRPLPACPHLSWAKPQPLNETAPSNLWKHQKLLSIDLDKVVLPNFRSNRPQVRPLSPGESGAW
Nature of the assay: Fluorogenic peptide assay for S1P activity (cleavage of MCA-conjugated peptides). The assay is classed as biochemical, hamster. The protocol: Fluorogenic Peptide Assay for S1P Activity
S1P activity was measured fluorometrically with MCA-conjugated peptidyl substrates. Each reaction was carried out in 0.2 ml of assay buffer (25 mM Tris, 25 mM Mes, 25 mM acetic acid, and 1 mM CaCl2 adjusted to pH 8.0 with concentrated NaOH). Reactions contained MCA-peptide (final concentration 100 μM, added in 2 μl DMSO) and […] of purified S1P(983)-C. After incubation for 0.5-5 h at 37° C., each reaction was terminated by addition of 1 ml of ice-cold 5 mM sodium EDTA. The liberated 7-amino-4-methyl-coumarin (AMC) was measured with a Perkin-ElmerLS-30 luminescence spectrometer (360 nm excitation, 460 nm emission). A standard curve of fluorescence intensity was generated with different concentrations of AMC (Promega).
Similar substrates have been used to assay furin, prohormone convertases, and other subtilisin-related enzymes (Nakayama, 1997). […] The sequence of this peptide corresponds to the sequence at Site-B of S1P, which is known to be cleaved by S1P in an autocatalytic reaction. Fluorescence rose linearly with time for 5 h. […] This differs from the observations with furin and the prohormone convertases, whose pH optima are generally in the range of 6-7 (Nakayama, 1997).
The indicated fluorogenic peptide-MCA (100 μM) was incubated with 3 μg of purified S1P(983)-C at 37° C. for 5 h. The S1P activity of Ac-VFRSLK-MCA (SEQ ID NO:13, 930 pmol per min/mg protein) was set at 1.0, and the activity of the other substrates was expressed relative to this value. Each value represents the average of duplicate incubations, which varied from each other by <10%.

Another assay relates to SREBP-2. Nature of the assay: Immunoblot of cleavage of HSV-tagged SREBP-2 in transfected SRD-12B cells. Conditions: SRD-12B cells, HSV-tagged SREBP-2. It is filed as cell-based, hamster. The procedure:
On day 0, SRD-12B cells were set up at a density of 6×10^5 cells/60-mm dish in medium B. On day 1, cells were transfected with 4 μg of the indicated plasmid DNA plus 12 μl of LipofectAMINE™ reagent (Life Technologies) according to the manufacturer's instructions with modifications as follows. LipofectAMINE™/DNA complexes were formed in 1 ml of serum-free medium for 15 min at room temperature, and 0.5 ml were added to 1 ml of serum-free medium per dish. […] After incubation at 37 ° C. for 20 h, the cells received N-acetyl-leucinal-leucinal norleucinal (ALLN) at a final concentration of 25 μg/ml. […] After boiling for 5 min, the proteins were subjected to SDS-PAGE and transferred to Hybond-C Extra nitrocellulose filters (Amersham). The filters were incubated with the antibodies described in the figure legends. […] Gels were calibrated with prestained molecular weight markers (New England Biolabs, Beverly, Mass.). Filters were exposed to X-Omat Blue XB-1 film (Kodak, Rochester, N.Y.) with intensifying screens at room temperature for the indicated time.
Cell membranes and nuclear extracts were subjected to electrophoresis and blotted with an antibody against the HSV epitope-tag.
In a more direct test for S1P catalytic activity, the mutant plasmids were transfected into the SRD-12B cells together with pTK-HSV-BP2. Membranes and nuclear extracts were subjected to SDS-PAGE and blotted with an antibody against the HSV-tagged SREBP-2 (FIG. 9B).
The inventors cotransfected cDNAs encoding wild-type S1P or one of the mutants. Cell membrane pellets and nuclear extracts were subjected to SDS-PAGE. and the NH2 -terminus of SREBP-2 was visualized by immunoblotting with anti-HSV (FIG. 16A).

Assay [1] relates to PLAP-BP2(513-1141) in SRD-12B cells. Nature of the assay: Secreted alkaline phosphatase assay in SRD-12B cells transfected with wild-type or mutant S1P cDNAs. The assay is classed as cell-based, hamster. As to conditions: Myc-tagged S1P cDNA.
Assay [2] has as its target HSV-tagged human SREBP-2, wild-type (human) (UniProt Q12772).

Turning to “27-amino acid synthetic peptide: 27-amino acid synthetic peptide corresponding to the luminal loop sequence of human SREBP-2 (GGAHDSDQHPHSGSGRSVLSFESGSGG)”, the “cleavage by SKI-1 culture medium” value in the assay with SKI-1 is on record as “able to cleave”.
For `CC(=O)N[C@@H](CCCNC(=N)N)C(=O)N[C@@H](CO)C(=O)N[C@H](C(=O)N[C@@H](CC(C)C)C(=O)Nc1ccc2c(C)cc(=O)oc2c1)C(C)C` [Ac-RSVL-MCA, Ac-Arg-Ser-Val-Leu-MCA] (Ac-RSVL-{AMC}), the “Relative Activity” value at purified S1P(983)-C (100 μM peptide-MCA, 3 μg S1P(983)-C, 37° C., 5 h, Ac-VFRSLK-MCA set at 1.0) is reported as less than 0.1. Besides, on purified S1P(983)-C (result in words), the “cleavage of the peptide” value is “did not cleave; also recorded: does not cleave”. In the assay on SKI-1, the “cleavage by SKI-1 culture medium” value is “unable to cleave”.

B1: wild-type S1P: hamster Site-1 protease expressed from cDNA (protein, UniProt Q9Z2A8 187-1052, looked up)
Membrane-bound transcription …: RAIPRQVAQTLQADVLWQMGYTGANVRVAVFDTGLSEKHPHFKNVKERTNWTNERTLDDGLGHGTFVAGVIASMRECQGFAPDAELHIFRVFTNNQVSYTSWFLDAFNYAILKKIDVLNLSIGGPDFMDHPFVDKVWELTANNVIMVSAIGNDGPLYGTLNNPADQMDVIGVGGIDFEDNIARFSSRGMTTWELPGGYGRVKPDIVTYGAGVRGSGVKGGCRALSGTSVASPVVAGAVTLLVSTVQKRELVNPASVKQALIASARRLPGVNMFEQGHGKLDLLRAYQILSSYKPQASLSPSYIDLTECPYMWPYCSQPIYYGGMPTIVNVTILNGMGVTGRIVDKPEWRPYLPQNGDNIEVAFSYSSVLWPWSGYLAISISVTKKAASWEGIAQGHIMITVASPAETEAKNGAEHTSTVKLPIKVKIIPTPPRSKRVLWDQYHNLRYPPGYFPRDNLRMKNDPLDWNGDHVHTNFRDMYQHLRSMGYFVEVLGAPFTCFDATQYGTLLMVDSEEEYFPEEIAKLRRDVDNGLSLVIFSDWYNTSVMRKVKFYDENTRQWWMPDTGGANIPALNELLSVWNMGFSDGLYEGEFALANHDMYYASGCSIAKFPEDGVVITQTFKDQGLEVLKQETAVVENVPILGLYQIPAEGGGRIVLYGDSNCLDDSHRQKDCFWLLDALLQYTSYGVTPPSLSHSGNRQRPPSGAGLAPPERMEGNHLHRYSKVLEAHLGDPKPRPLPACPHLSWAKPQPLNETAPSNLWKHQKLLSIDLDKVVLPNFRSNRPQVRPLSPGESGAWDIPGGIMPGRYNQEVGQTIPVFAFLGAMVALAFFVVQISKAKSRPKRRRPRAKRPQLTQQTHPPRTPSV
With B1, the “cleavage of SREBP-2 by S1P or S1P mutant” value in the assay on SREBP-2 is listed as “maximal cleavage”; with SREBP-2 (listed as Wild-type S1P), “restored cleavage”. Further, the “PLAP activity in the culture medium” value in assay [1] is recorded as “increased”.

B2: Myc-S1P(Site-B mutant) (enzyme)
chain: DGGRSEQKLISEEDLNGEQKLISEEDLNGEQKLISEEDLNSSGRLGKKAFEKASCPSCSHLTLKVEFSSTVVEYEYIVAFNGYFTAKARNSFISSALKSSEVDNWRIIPRNNPSSDYPSDFEVIQIKEKQKAGLLTLEDHPNIKRVTPQRKVFAAAAFAESDPIVPCNETRWSQKWQSSRPLRRASLSLGSGFWHATGRHSSRRLLRAIPRQVAQTLQADVLWQMGYTGANVRVAVFDTGLSEKHPHFKNVKERTNWTNERTLDDGLGHGTFVAGVIASMRECQGFAPDAELHIFRVFTNNQVSYTSWFLDAFNYAILKKIDVLNLSIGGPDFMDHPFVDKVWELTANNVIMVSAIGNDGPLYGTLNNPADQMDVIGVGGIDFEDNIARFSSRGMTTWELPGGYGRVKPDIVTYGAGVRGSGVKGGCRALSGTSVASPVVAGAVTLLVSTVQKRELVNPASVKQALIASARRLPGVNMFEQGHGKLDLLRAYQILSSYKPQASLSPSYIDLTECPYMWPYCSQPIYYGGMPTIVNVTILNGMGVTGRIVDKPEWRPYLPQNGDNIEVAFSYSSVLWPWSGYLAISISVTKKAASWEGIAQGHIMITVASPAETEAKNGAEHTSTVKLPIKVKIIPTPPRSKRVLWDQYHNLRYPPGYFPRDNLRMKNDPLDWNGDHVHTNFRDMYQHLRSMGYFVEVLGAPFTCFDATQYGTLLMVDSEEEYFPEEIAKLRRDVDNGLSLVIFSDWYNTSVMRKVKFYDENTRQWWMPDTGGANIPALNELLSVWNMGFSDGLYEGEFALANHDMYYASGCSIAKFPEDGVVITQTFKDQGLEVLKQETAVVENVPILGLYQIPAEGGGRIVLYGDSNCLDDSHRQKDCFWLLDALLQYTSYGVNPPSLSHSGNRQRPPSGAGLAPPERMEGNHLHRYSKVLEAHLGDPKPRPLPACPHLSWAKPQPLNETAPSNLWKHQKLLSIDLDKVVLPNFRSNRPQVRPLSPGESGAWDIPGGIMPGRYNQEVGQTIPVFAFLGAMVALAFFVVQISKAKSRPKRRRPRAKRPQLTQQTHPPRTPSV
Regarding B2, the cleaved nuclear form of HSV-tagged SREBP-2 on immunoblot (SRD-12B cells) (fold higher levels of expression) in assay [2] stood at 10.
